Measurements: ChEMBL document CHEMBL5365395, “Optimization of a series of novel, potent and selective Macrocyclic SYK inhibitors” (Bioorg Med Chem Lett, 2023)

How the values were obtained:
[1] = Intrinsic clearance in rat hepatocytes assessed per million cells; type: ADME, cell-based, Hepatocyte; details: read-out: CLH
[2] = Intrinsic Clearance in human liver microsome; type: ADME; details: liver microsomes, read-out: CLH
[3] = Apparent permeability across apical to basolateral side in human Caco-2 cells at pH 6.5 after 45 to 120 mins by LC-MS/MS analysis; type: ADME, cell-based; details: Caco-2, pH 6.5, time 45-120 min
[4] = biological target: Voltage-gated inwardly rectifying potassium channel KCNH2 (Homo sapiens, UniProt Q12809); assay: Inhibition of human ERG by patch clamp assay; type: toxicity
SUD4 = assay: Cytotoxicity against human SU-DHL-4 cells assessed as reduction in cell viability
[5] = Lipophilicity, logD of the compound in buffer/octanol volume ratio of 100:1 at pH 7.4 by shake flask method; type: physicochemical
[6] = Hydrolytic stability of the compound at pH 1 assessed as half life; type: physicochemical; details: buffer
[7] = Hydrolytic stability of the compound at pH 7.4 assessed as half life; type: physicochemical; details: buffer
[8] = Hydrolytic stability of the compound at pH 10 assessed as half life; type: physicochemical; details: buffer
[9] = Clearance in Han-Wistar rat at 1 umol/kg, iv; type: ADME; details: in vivo, dose 1 µmol/kg
[10] = Oral bioavailability in Han-Wistar rat at 2 umol/kg; type: ADME, organism-based; details: in vivo, at 2 µmol/kg
[11] = Volume of distribution at steady state in Han-Wistar rat at 1 umol/kg, iv; type: ADME; details: in vivo, dose 1 µmol/kg, read-out: Vdss
[12] = Plasma protein binding in Han-Wistar rat assessed as fraction unbound; type: ADME, cell-free
[13] = Intrinsic clearance in Han-Wistar rat hepatocytes; type: ADME, cell-based, Hepatocyte
[14] = Clearance in Beagle Dog at 1 umol/kg, iv; type: ADME, Canis lupus familiaris; details: in vivo, dose 1 µmol/kg
[15] = Volume of distribution at steady state in Beagle Dog at 1 umol/kg, iv; type: ADME, Canis lupus familiaris; details: in vivo, dose 1 µmol/kg, read-out: Vdss
[16] = Oral bioavailability in Beagle Dog at 2 umol/kg; type: ADME, organism-based, Canis lupus familiaris; details: in vivo, at 2 µmol/kg
[17] = Intrinsic clearance in Beagle Dog hepatocytes; type: ADME, cell-based, Canis lupus familiaris, Hepatocyte
[18] = biological target: Tyrosine-protein kinase SYK (Homo sapiens, UniProt P43405); assay: Inhibition of full length recombinant human SYK
[19] = biological target: Mitogen-activated protein kinase kinase kinase 9 (Homo sapiens) (UniProt P80192); assay: Inhibition of MAP3K9 (unknown origin) at 0.1 uM relative to control
Chain of Mitogen-activated protein kinase kinase kinase 9 (Homo sapiens) (P80192 whole entry, looked up): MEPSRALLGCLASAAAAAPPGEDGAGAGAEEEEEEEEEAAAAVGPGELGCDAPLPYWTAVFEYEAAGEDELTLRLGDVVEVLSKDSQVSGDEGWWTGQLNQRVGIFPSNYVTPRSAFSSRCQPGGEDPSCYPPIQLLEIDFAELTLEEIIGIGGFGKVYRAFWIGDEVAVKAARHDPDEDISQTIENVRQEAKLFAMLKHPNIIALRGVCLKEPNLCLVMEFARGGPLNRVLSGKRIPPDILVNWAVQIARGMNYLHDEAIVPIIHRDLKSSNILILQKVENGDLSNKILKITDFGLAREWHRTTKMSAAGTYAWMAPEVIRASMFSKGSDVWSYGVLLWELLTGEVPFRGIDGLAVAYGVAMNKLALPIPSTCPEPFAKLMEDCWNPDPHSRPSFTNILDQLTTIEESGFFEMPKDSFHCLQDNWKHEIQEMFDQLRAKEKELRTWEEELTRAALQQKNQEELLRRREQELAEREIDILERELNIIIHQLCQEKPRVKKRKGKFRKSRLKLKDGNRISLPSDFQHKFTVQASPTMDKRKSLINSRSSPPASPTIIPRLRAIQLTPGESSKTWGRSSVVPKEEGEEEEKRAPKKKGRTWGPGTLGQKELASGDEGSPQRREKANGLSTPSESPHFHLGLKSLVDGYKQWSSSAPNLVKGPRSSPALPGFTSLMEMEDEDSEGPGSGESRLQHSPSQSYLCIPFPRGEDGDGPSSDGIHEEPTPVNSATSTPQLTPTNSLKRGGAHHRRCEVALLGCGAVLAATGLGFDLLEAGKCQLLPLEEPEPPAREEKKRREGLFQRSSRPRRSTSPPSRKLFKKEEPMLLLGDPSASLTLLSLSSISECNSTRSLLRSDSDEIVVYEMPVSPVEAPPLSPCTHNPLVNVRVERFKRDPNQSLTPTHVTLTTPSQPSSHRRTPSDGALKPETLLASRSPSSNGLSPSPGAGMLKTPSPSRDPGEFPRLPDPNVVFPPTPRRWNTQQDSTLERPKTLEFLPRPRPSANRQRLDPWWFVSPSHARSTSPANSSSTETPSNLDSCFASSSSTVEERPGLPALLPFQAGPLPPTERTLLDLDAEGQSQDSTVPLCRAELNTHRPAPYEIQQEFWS

Chain of Voltage-gated inwardly rectifying potassium channel KCNH2 (Q12809 whole entry): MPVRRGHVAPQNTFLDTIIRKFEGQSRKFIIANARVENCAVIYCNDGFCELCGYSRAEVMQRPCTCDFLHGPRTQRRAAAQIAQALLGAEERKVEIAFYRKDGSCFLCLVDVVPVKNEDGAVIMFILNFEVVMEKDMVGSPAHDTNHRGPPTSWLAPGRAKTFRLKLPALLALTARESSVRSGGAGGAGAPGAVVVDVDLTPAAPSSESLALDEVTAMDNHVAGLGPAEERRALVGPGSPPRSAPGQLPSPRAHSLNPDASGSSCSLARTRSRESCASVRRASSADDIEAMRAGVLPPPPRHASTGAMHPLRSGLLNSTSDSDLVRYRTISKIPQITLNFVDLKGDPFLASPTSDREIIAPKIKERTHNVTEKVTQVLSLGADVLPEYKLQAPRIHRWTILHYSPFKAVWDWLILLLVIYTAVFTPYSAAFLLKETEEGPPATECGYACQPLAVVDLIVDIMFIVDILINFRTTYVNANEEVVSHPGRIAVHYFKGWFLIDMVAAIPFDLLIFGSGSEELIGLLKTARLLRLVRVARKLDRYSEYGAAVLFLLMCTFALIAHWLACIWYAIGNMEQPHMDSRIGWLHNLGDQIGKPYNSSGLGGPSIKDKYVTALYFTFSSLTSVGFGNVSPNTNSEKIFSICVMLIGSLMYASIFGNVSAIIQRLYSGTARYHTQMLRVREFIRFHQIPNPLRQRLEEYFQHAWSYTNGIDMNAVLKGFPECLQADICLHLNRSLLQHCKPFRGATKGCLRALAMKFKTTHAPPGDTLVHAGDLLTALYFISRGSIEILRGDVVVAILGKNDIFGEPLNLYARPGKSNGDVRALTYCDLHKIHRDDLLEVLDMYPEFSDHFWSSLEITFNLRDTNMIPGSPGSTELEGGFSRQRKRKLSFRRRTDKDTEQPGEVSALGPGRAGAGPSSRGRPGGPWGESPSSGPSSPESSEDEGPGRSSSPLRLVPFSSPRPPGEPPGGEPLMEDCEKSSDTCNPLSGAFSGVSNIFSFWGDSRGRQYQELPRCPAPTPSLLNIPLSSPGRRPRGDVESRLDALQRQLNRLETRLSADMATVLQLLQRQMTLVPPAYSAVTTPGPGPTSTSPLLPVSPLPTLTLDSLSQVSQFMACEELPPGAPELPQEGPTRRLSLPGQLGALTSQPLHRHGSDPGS

SMILES	hepatocyte CLint [1] [µL/min/1e6 cells]	microsomal CLint [2] [µL/min/mg]	Papp A→B [3] [×10⁻⁶ cm/s]	IC50 [4] [nM]	IC50 (SUD4) [nM]	logD [5]	further results
CC(=O)OC(C)(C)Cn1nc2c3cc(ccc31)Nc1nccc(n1)-n1cc(c(C)n1)CN(C)CCOCCNC2=O	63	229	13	1200	850	2.5	half-life [6]: 6.5 h; half-life [7]: 72 h; half-life [8]: 2.9 h
CNC(=O)c1nn(C)c2ccc(Nc3nccc(-n4cc(CN(C)C)c(C)n4)n3)cc12	–	–	–	–	240	–	–
Cc1nn2cc1CN(C)CCOCCNC(=O)c1nn(CCO)c3ccc(cc13)Nc1nccc-2n1	< 1.6	23	1.12	> 39000	280	1.2	clearance [9]: 33 mL/min/kg; bioavailability [10]: 0.9%; Vd [11]: 2.1 L/kg; Fu [12]: 16%; CLH [13]: < 1.5 µL/min/1e6 cells; clearance [14]: 9 mL/min/kg; Vd [15]: 1.9 L/kg; bioavailability [16]: 0.38%; CLH [17]: < 1 µL/min/1e6 cells
CC(=O)OCCn1nc2c3cc(ccc31)Nc1nccc(n1)-n1cc(c(C)n1)CN(C)CCOCCNC2=O	198	> 300	3.6	2100	990	1.9	half-life [6]: 0.7 h; half-life [7]: 6.8 h; half-life [8]: < 0.5 h
Cc1nn2cc1CN(C)CCOCCNC(=O)c1nn(CCOC(=O)C(C)(C)C)c3ccc(cc13)Nc1nccc-2n1	163	> 300	8	1100	1000	3.1	half-life [6]: > 100 h; half-life [7]: 30 h; half-life [8]: 5 h
Cc1nn2cc1CN(C)CCOCCNC(=O)c1nn(CC(C)(C)O)c3ccc(cc13)Nc1nccc-2n1	3.4	52	–	8000	480	1.6	–
Cc1nn2cc1CN(C)N1CCC(CCNC(=O)c3nn(C)c4ccc(cc34)Nc3nccc-2n3)CC1	15	76	–	–	350	2.3	–
Cc1nn2cc1CN(C)CCOCCNC(=O)c1nn(C3COC3)c3ccc(cc13)Nc1nccc-2n1	4.6	28	3.7	3700	550	1.7	–
Cc1nn2cc1CN(C)CCOCCNC(=O)c1nn(C)c3ccc(cc13)Nc1nccc-2n1	8.1	25	19	850	570	1.8	IC50 [18]: 0.13 nM; clearance [9]: 16 mL/min/kg; bioavailability [10]: 64%; Vd [11]: 1.9 L/kg; Fu [12]: 7%; CLH [13]: 8.1 µL/min/1e6 cells; inhibition [19]: > 70%
Cc1nn2cc1CN(C)CCOCCNC(=O)c1nn(C[C@H](C)O)c3ccc(cc13)Nc1nccc-2n1	6.5	34	–	> 22000	390	1.3	–
Cc1nn2cc1CN(C)N1CCC(O)(CCNC(=O)c3nn(C)c4ccc(cc34)Nc3nccc-2n3)CC1	2.1	28	1.9	8800	100	1.6	–
Cc1nn2cc1CN(C)N1CC(CNC(=O)c3nn(C)c4ccc(cc34)Nc3nccc-2n3)C1	27	18	–	–	1200	1.2	–
Cc1nn2cc1CN(C)CCOCCNC(=O)c1nn(C[C@@H](C)O)c3ccc(cc13)Nc1nccc-2n1	4.4	39	–	22000	260	1.4	–
Cc1nn2cc1CN(C)CCCCCNC(=O)c1nn(C)c3ccc(cc13)Nc1nccc-2n1	12	44	–	–	2200	2.7	–
